Test results reported in US6602878B1, “Acylquanidine derivatives, method for preparing same, application as medicines and pharmaceutical compositions containing them” (Aventis Pharma S.A., priority 1998, dated 2003).

Target: human αvβ3 receptor (Homo sapiens, UniProt P05106+P06756)
Test: Kistrin/Vitronectin Receptor (αvβ3) ELISA Test
Type: binding
Conditions: kistrin-coated plates, 3 hours at ambient temperature, OD 450 nm, read-out: K/VnR IC50
Method: Kistrin/Vitronectin Receptor (αvβ3) ELISA Test
96-well MaxiSorp plates are coated overnight at […] with 100 μl of Kistrin at 1 μg/ml (dilution in coating buffer: 0.05 M (carbonate)/NaOH pH 9.6. The next day, the wells are emptied and the ligands (kistrin) are then fixed (fixation buffers: PBS containing 0.5% BSA (pH=7.4)) for 1 hour at ambient temperature under gentle agitation of 125 rpm. The wells are washed six times (washing buffer: PBS containing 0.05% Tween 20 (pH 7.7) then the following is added per well and in this order:
40 μl of incubation buffer
10 μl of the dilution of the product to be tested (the products are diluted in a 50:50 DMSO/water mixture)
50 μl of human αvβ3 receptor (cf Pytel et al. Methods Enzymol. (1987) 144 (Dilution in incubation buffer, adapted according to the batch of receptor and according to the ligand). The ligand, the αvβ3 receptor and the products to be studied are incubated for 3 hours at ambient temperature with gentle agitation of 125 rpm.
The wells are again washed six times, then incubated for 2 hours at ambient temperature with gentle agitation of 125 rpm, in the presence of 100 μl of anti-receptor antibody coupled to a peroxidase (The 4B12-HRP antibody is diluted in incubation buffer (50 mM TRIS pH 7.4; 0.5% BSA; 0.05% Tween 20; 1 mM MnCl2; 50 μM CaCl2; 50 μM MgCl2; 100 mM NaCl). The dilution is to be adapted according to the batch of receptor.
The wells are then washed six times before measurement of the ligand-receptor bond is carried out using a peroxidase developer kit (TBM Microwell Peroxidase Substrate System Kirkegaard; Ref cat 50-76-00).
This kit contains a flask A of substrate (3,3′,5,5′-tetramethylebenzidine at 0.4 g/l) and a flask B (H2O2 to 0.02% in Citrate/Citric acid). Extemporaneously, one volume of A is mixed with one volume of B, then the reaction mixture is distributed at a rate of 100 μl/wells.
The enzymatic reaction develops between 6 to 10 minutes for Kistrin/αvβ3 then its development is stopped by the addition of 100 μl of 1 M phosphoric acid. The optical density is determined at 450 nm.
Expression of the Results
The following curve is plotted: the bond percentage as a function of the logarithm of each concentration of the tested product.
For each product IC50 is determined according to the following formula:
B0=Maximum bond in the absence of any product
Bmin=Minimum bond in the presence of the highest

human αvβ3 receptor, sequence (P06756 31-889 limits assumed): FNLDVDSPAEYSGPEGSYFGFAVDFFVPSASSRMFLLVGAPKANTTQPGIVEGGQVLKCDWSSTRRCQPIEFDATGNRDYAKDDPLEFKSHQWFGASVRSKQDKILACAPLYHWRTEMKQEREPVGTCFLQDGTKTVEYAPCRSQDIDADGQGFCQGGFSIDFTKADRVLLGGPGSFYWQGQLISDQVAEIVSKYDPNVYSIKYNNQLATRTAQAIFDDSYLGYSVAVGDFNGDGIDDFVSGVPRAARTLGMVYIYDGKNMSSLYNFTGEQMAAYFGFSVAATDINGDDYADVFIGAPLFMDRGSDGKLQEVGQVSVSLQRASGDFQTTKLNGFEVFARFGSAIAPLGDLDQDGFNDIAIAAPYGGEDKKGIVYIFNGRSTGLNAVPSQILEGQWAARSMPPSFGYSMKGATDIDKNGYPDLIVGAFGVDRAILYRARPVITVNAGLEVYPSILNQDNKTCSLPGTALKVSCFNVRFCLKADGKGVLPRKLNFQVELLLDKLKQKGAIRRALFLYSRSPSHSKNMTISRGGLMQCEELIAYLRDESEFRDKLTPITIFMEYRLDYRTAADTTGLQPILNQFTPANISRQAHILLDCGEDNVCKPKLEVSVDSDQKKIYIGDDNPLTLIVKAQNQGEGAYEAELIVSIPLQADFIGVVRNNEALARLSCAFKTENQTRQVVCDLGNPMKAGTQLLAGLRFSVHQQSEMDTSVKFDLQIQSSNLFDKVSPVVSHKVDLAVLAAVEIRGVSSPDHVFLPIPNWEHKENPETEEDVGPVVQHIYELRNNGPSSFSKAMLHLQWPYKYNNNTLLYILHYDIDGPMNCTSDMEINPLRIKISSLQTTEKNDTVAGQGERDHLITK
human αvβ3 receptor, sequence (P06756 891-1048 partner limits assumed): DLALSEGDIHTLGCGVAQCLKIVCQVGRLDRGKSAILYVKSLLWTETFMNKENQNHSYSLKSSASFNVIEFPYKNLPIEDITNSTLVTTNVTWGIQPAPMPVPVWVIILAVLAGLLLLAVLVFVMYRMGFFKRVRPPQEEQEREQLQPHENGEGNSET
human αvβ3 receptor, sequence (P05106 27-788): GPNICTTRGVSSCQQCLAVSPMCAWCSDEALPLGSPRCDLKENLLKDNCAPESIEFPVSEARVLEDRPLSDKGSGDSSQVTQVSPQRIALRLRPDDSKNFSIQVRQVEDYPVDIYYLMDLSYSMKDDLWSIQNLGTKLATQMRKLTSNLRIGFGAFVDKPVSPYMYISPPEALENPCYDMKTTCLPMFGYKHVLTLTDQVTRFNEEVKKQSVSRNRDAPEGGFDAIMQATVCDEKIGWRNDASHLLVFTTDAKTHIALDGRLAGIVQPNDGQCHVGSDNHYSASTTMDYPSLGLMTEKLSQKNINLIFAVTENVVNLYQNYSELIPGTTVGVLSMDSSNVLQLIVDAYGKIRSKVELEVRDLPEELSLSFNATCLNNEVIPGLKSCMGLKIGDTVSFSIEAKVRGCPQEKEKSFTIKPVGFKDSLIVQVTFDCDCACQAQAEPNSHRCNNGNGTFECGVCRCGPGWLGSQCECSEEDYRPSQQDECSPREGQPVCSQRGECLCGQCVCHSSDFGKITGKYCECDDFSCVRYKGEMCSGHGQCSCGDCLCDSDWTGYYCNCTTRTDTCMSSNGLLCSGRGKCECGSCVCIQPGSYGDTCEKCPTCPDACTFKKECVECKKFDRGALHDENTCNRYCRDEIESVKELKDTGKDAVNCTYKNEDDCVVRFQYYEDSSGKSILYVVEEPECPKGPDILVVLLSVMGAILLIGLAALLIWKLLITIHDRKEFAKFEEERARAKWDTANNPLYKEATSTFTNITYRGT

SMILES | IC50 [µM]
N=C(N)NC(=O)CCc1ccc(OCCC(NC(=O)OCc2ccccc2)C(=O)O)cc1 (stereo not drawn) [Example 1, O—[4-[3-[(aminoiminomethyl)amino]-3-oxopropyl]phenyl]-N-[(phenylmethoxy)carbonyl]-homoserine] | 0.031
O=C(CCc1ccc(OCC[C@H](NC(=O)OCc2ccccc2)C(=O)O)cc1)NC1=NCCCN1 [Example 2, O—[4-[3-oxo-3-[(1,4,5,6-tetrahydro-2-pyrimidinyl)amino]-propyl]phenyl]-N-[(phenylmethoxy)carbonyl]-homoserine] | 0.0073
CCOC(=O)C(CCOc1ccc(CCC(=O)NC2=NCCCN2)cc1)NC(=O)OCc1ccccc1 (stereo not drawn) [Example 3, Ethyl O—[4-[3-oxo-3-[(1.4,5,6-tetrahydro-2-pyrimidinyl)amino]-propyl]phenyl]-N [(phenylmethoxy)carbonyl]-homoserinate] | 0.403
CC(C)OC(=O)C(CCOc1ccc(CCC(=O)NC2=NCCCN2)cc1)NC(=O)OCc1ccccc1 (stereo not drawn) [Example 4, (1-Methyl)ethyl O—[4-[3-oxo-3-[(1.4,5,6-tetrahydro-2-pyrimidinyl)amino]-propyl]phenyl]-N-[(phenylmethoxy)carbonyl]-homoserinate] | 5
O=C(CCc1ccc(OCC[C@H](NC(=O)OCC23CC4CC(CC(C4)C2)C3)C(=O)O)cc1)NC1=NCCCN1 [Example 5, O—[4-[3-oxo-3-[(1.4,5,6-tetrahydro-2-pyrimidinyl)amino]-propyl]phenyl]-N-[[(1-tricyclo[3.3.1.1^3,7]decyl)-methoxy]-carbonyl]-homoserine] | 0.012
Cc1cc(C)c(S(=O)(=O)NC(CCOc2ccc(CCC(=O)NC3=NCCCN3)cc2)C(=O)O)c(C)c1 (stereo not drawn) [Example 6, O—[4-[3-oxo-3-[(1.4,5,6-tetrahydro-2-pyrimidinyl)amino]-propyl)phenyl]-N-[(2.4,6-trimethylphenyl)sulphonyl]-homoserine] | 0.0033
O=C(CCc1ccc(OCCC(NS(=O)(=O)c2cccc3ccccc23)C(=O)O)cc1)NC1=NCCCN1 (stereo not drawn) [Example 7, O—[4-[3-oxo-3-[(1.4,5,6-tetrahydro-2-pyrimidinyl)amino]-propyl]phenyl]-N-[(1-naphthalenyl)sulphonyl]-homoserine] | 0.0025
O=C(CCc1cccc(OCCC(NC(=O)OCc2ccccc2)C(=O)O)c1)NC1=NCCCN1 (stereo not drawn) [Example 8, O—[3-[3-oxo-3-[(1,4,5,6-tetrahydro-2-pyrimidinyl)amino]-propyl]phenyl]-N-[(phenylmethoxy)carbonyl]-homoserine;] | 0.013
O=C(CCc1cccc(OCCCC(NC(=O)OCc2ccccc2)C(=O)O)c1)NC1=NCCCN1 (stereo not drawn) [Example 9, 5-[3-[3-oxo-3-[(1.4,5,6-tetrahydro-2-pyrimidinyl)amino]-propyl]phenoxy]-N-[(phenylmethoxy)carbonyl]-norvaline] | 0.11
